# Source: patent EP4186500A1, “MEK INHIBITORS FOR THE PREVENTION AND TREATMENT OF LONG COVID SYNDROME” (Atriva Therapeutics GmbH, priority 2021, dated 2023)
# How the values were obtained:
# [1] = test system: Human T-cell Inflammation; test: T-cell inflammation inhibition assay (Anti-CD3 stimulation) in PBMC; conditions: 100, 50, and 25 µM, 24 hours, PBMC from three human donors
# [2] = test system: cytokine & chemokine gene expression; test: Acute lung injury (ALI) mouse model, LPS induced cytokine and chemokine gene expression; assay type: in vivo; conditions: 5mg/kg LPS i.p.; 25 mg/kg ATR-002 i.p. one hour post stimulation; 6h post treatment
# SARS-CoV-2 (FI) = assay type: cell-based, Severe acute respiratory syndrome coronavirus
# MCP-1 = MCP-1 expression in SARS-CoV-2 infected CaCo2 cells; assay type: cell-based, Homo sapiens; conditions: high amount of ATR-002 necessary
# VSV ΔG/GFP-Luc+SΔ21 = assay type: cell-based
# [3] = test system: Human T-cell Inflammation; test: T-cell inflammation inhibition assay (ConA and PHA stimulation) in PBMC; conditions: 100, 50, and 25 µM, 24 hours, PBMC from three human donors
# Calu-3 cells = test: Cytotoxicity evaluation in Calu-3 cells; assay type: cell-based, Homo sapiens; conditions: 72 h treatment
# Procedure: In a next step, Calu-3 cells were incubated with increasing amounts of ATR-002 over 24, 48 or 72 hours. Specifically, Calu-3 cells were infected with SARS-CoV-2 (FI) using a MOI of 0.01. 1 h.p.i. cells were treated with ATR-002. Mock, SARS-CoV-2 and DMSO served as controls. […] Untreated (SARS-CoV-2) and DMSO (0.1 %) treated cells served as negative controls. Data represents means ± SD of three independent experiments, each performed in triplicates. Data passed a one-way ANOVA followed by Dunnett's multiple comparison test (^∗∗ p≤0.0021; ^∗∗∗ p≤0,0002; ^∗∗∗∗ p≤0.0001) for each time point separately. DMSO was used as reference. […] Data in combination with (C) was used to calculate the CC50 value and the selectivity index (SI). […] Data represent means ± SD of three independent experiments.
# MxA and IL8 mRNA = MxA and IL8 mRNA expression in poly (I:C) transfected A549 cells; assay type: cell-based, Homo sapiens; conditions: 100 ng/ml poly (I:C), 24 hours
# [4] = human, in vivo
# SARS-CoV-2 strain FI = assay type: cell-based, Severe acute respiratory syndrome coronavirus; conditions: Vero cells, MOI 0.01; 50 µM ATR-002; 24h, 36h and 48h
# [5] = test system: IL-6, IL-8, MCP-1, IP-10 and CCL5 mRNA; test: Pro-inflammatory cytokine mRNA expression in SARS-CoV-2 infected Calu-3 cells (real-time PCR); assay type: cell-based, Homo sapiens; conditions: SARS-CoV-2 (FI) MOI 0.01, increasing amounts of ATR-002
# [6] = test system: SARS-CoV-2 viral gene RdRP; assay type: cell-based, Severe acute respiratory syndrome coronavirus; conditions: Vero cells, MOI 0.01; 50 µM ATR-002; 24, 36 and 48 hpi
# SARS-CoV-2 = assay type: cell-based, Severe acute respiratory syndrome coronavirus; conditions: CaCo-2 cells, MOI 0.1; 50 and 100 µM ATR-002; 24h
# pERK1/2 = test: Wes analysis of ERK phosphorylation in SARS-CoV-2 infected Caco-2 cells; assay type: cell-based, Homo sapiens; conditions: CaCo-2 cells infected SARS-CoV-2 (MOI 0.1); 50 and 100 µM ATR-002; 24h
# Procedure: For the Virus yield reduction assay a 24-well plate (Greiner Bio-One, Cat. 662-160) with 95% confluent Caco-2 cells was prepared. The wells were washed once with Caco-2 infection medium DMEM (Gibco, Cat. 41965-039) supplemented with 5% FCS (Capricorn, Cat. FBS-12A), 1% Penicillin/Streptomycin, (Sigma Aldrich, Cat. P4333) and 1% Non-essential amino acids (NEAA) (Merck, Cat. K 0293). Cells were infected with SARS-CoV-2 (MOI 0.1) for 1h in 200µL Caco-2 infection medium per well. Afterwards the Virus inoculum was removed completely and cells were treated with 1mL per well with different concentrations of ATR-002 (100µM, 50µM, 25µM, 12.5µM, 6.25µM, 3.125µM, 1.56µM, 0.78µM, 0.39µM, 0.195µM, 0.098µM, 0µM) in Caco-2 infection medium with 1% DMSO for 24h at 37°C, 5% CO2. […]
# Wes™ capillary electrophoresis by ProteinSimple® was used to identify and quantify pERK1/2, ERK1/2 and SARS-CoV-2 Nucleoprotein. Cell lysates were diluted with 0.1X Sample Buffer (ProteinSimple, Abingdon, Oxford, UK) to approximately 50ng total protein per lane and analyzed using specific antibodies. […] The anti-rabbit secondary antibody (ProteinSimple, Cat. DM-001) and anti-mouse secondary antibody (ProteinSimple, Cat. DM-002) and all other reagents for WES analysis were also purchased from ProteinSimple and were ready to use.
compound,measurement,setting,value
"O=C(O)c1ccc(F)c(F)c1Nc1ccc(I)cc1Cl [ATR-002, 2-(2-chloro-4-iodophenylamino)-N-3,4-difluoro benzoic acid]",inhibition of cytokine/chemokine stimulation,[1],"significant, dose dependent inhibition"
same,IL-1beta gene expression in lung,[2],decrease
same,IL-8 gene expression in lung,[2],decrease
same,IP-10 gene expression in lung,[2],decrease
same,MCP-1 gene expression in lung,[2],decrease
same,MIP-1beta gene expression in lung,[2],decrease
same,TNF-alpha gene expression in lung,[2],decrease
same,cell damage of infected cells (light microscopy),"SARS-CoV-2 (FI); Calu-3 cells infected with SARS-CoV-2, Figure 6 D",did not show the characteristic cell damage
same,production of progeny viral particles,"SARS-CoV-2 (FI); Calu-3 cells, MOI 0.01, ATR-002 10 - 150 µM, 24, 48 or 72 hours",concentration dependent decrease in the production of progeny viral particles
same,MCP-1 expression,MCP-1,able to reduce MCP-1 expression
same,internalization of the VSV pseudotype virus (GFP-positive cells),VSV ΔG/GFP-Luc+SΔ21,reduction in the internalization of the VSV pseudotype virus
same,inhibition of cytokine/chemokine stimulation,[3]; ConA stimulation,"significant, dose dependent inhibition"
same,inhibition of cytokine/chemokine stimulation,[3]; PHA stimulation,"significant, dose dependent inhibition"
same,Cytotoxicity,Calu-3 cells,non-toxic concentration range
same,MxA mRNA expression (anti-viral interferon system),MxA and IL8 mRNA,did not affect the stimulation of the anti-viral interferon system
same,expression of pro-inflammatory IL8,MxA and IL8 mRNA; even with low concentrations,strong reduction
same,blood levels (pharmacokinetics exposure),[4],confirm the maintenance of clinically relevant blood levels
same,safety and tolerability,[4],safe and well tolerable
same,safety of each dose cohort (Safety Review Committee),[4],considered to be safe
same,serious adverse events,[4],no serious adverse events
same,viral load (virus titer by plaque assay),SARS-CoV-2 strain FI,lower viral load than control cells
same,"expression of pro-inflammatory cytokines (IL-6, IL-8, MCP-1, IP-10 and CCL5 mRNA)",[5],reduce the expression of pro-inflammatory cytokines
same,SARS-CoV-2 viral gene RdRP genome copy number,[6],confirmed
same,SARS-CoV-2 virus titer,SARS-CoV-2,inhibition
same,nucleocapsid protein,SARS-CoV-2,inhibition
same,ERK-phosphorylation,pERK1/2,inhibition
